Activity calls are given as the source filed them. The calls are words filed in the database; no cut-off is given here.
Key:
A549 = assay: Cytotoxicity against human A549 cells after 48 hrs by MTT assay; type: functional, cell-based; conditions: A549, 48 h
[1] = molecular target: T1, Inhibitor of nuclear factor kappa-B kinase subunit beta (Homo sapiens, UniProt O14920); assay: Inhibition of phosphorylation of human recombinant Flag-tagged IKKbeta expressed in Sf21 cells after 1 hr by Kinase-Glo luminescent kinase assay
T1 sequence (O14920 whole entry): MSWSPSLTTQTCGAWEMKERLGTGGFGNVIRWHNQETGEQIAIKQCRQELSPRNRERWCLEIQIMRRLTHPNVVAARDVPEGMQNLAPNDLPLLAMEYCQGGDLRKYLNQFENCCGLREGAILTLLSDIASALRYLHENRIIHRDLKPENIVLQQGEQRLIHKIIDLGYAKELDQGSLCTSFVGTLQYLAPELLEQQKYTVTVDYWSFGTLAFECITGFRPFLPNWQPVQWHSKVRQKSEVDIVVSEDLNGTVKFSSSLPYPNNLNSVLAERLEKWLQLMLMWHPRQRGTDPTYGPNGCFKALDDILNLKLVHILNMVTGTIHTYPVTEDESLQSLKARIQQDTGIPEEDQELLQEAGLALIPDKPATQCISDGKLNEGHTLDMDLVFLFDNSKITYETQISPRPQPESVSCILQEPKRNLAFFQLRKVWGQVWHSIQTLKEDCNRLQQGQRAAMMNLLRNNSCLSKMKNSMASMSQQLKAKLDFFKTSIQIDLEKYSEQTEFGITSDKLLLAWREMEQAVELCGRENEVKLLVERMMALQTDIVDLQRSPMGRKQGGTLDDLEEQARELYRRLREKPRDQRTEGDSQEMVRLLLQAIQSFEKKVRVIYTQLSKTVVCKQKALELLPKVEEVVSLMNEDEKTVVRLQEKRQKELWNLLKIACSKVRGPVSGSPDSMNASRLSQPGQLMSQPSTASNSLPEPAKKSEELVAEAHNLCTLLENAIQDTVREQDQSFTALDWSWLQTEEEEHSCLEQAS

[2] = Stability in simulated gastric fluid at pH 2 assessed as compound remaining measured at 5 mg/ml at 2 hrs by HPLC analysis; type: ADME; conditions: read-out: Stability
[3] = Stability in simulated gastric fluid at pH 2 assessed as compound remaining measured at 5 mg/ml at 5 hrs by HPLC analysis; type: ADME; conditions: read-out: Stability
[4] = Stability in simulated gastric fluid at pH 2 assessed as compound remaining measured at 5 mg/ml at 8 hrs by HPLC analysis; type: ADME; conditions: read-out: Stability
[5] = Stability in simulated gastric fluid at pH 2 assessed as compound remaining measured at 5 mg/ml at 12 hrs by HPLC analysis; type: ADME; conditions: read-out: Stability
[6] = Metabolic stability in 80% human plasma assessed as compound remaining at 5 mg/ml at 15 mins by HPLC analysis; type: ADME, cell-free; conditions: read-out: Stability
[7] = Metabolic stability in 80% human plasma assessed as compound remaining at 5 mg/ml at 30 mins by HPLC analysis; type: ADME, cell-free; conditions: read-out: Stability
[8] = Metabolic stability in 80% human plasma assessed as compound remaining at 5 mg/ml at 60 mins by HPLC analysis; type: ADME, cell-free; conditions: read-out: Stability
[9] = Metabolic stability in 80% human plasma assessed as compound remaining at 5 mg/ml at 120 mins by HPLC analysis; type: ADME, cell-free; conditions: read-out: Stability
[10] = molecular target: T2, Inhibitor of nuclear factor kappa-B kinase subunit beta (Homo sapiens) (UniProt O14920); conditions: A549, 0.5 to 1 uM
T2 sequence (whole entry): T1 sequence (O14920 whole entry)
Description: Inhibition of TNFalpha-induced IKKbeta-mediated IkappaB degradation in human A549 cells compound treated for 8 hrs at 0.5 to 1 uM followed by TNFalpha stimulation measured after 30 mins by Western blot analysis relative to control

SMILES: CC1(C)C[C@@H](O)[C@]2(C(=O)O)CC[C@]3(C)C(=CC[C@@H]4[C@@]5(C)CCC(=O)C(C)(C)[C@@H]5CC[C@]43C)[C@@H]2C1
- IC50 (A549): > 10000 nM

SMILES: CC(C)=CC(=O)O[C@@H]1CC(C)(C)C[C@H]2C3=CC[C@@H]4[C@@]5(C)CC[C@H](O)C(C)(C)[C@@H]5CC[C@@]4(C)[C@]3(C)CC[C@@]12C(=O)O [Reduced Lantadene B]
- IC50 ([1]; sf21): 4240 nM
- IC50 (A549): 430 nM

SMILES: CCCC(=O)O[C@@H]1CC(C)(C)C[C@H]2C3=CC[C@@H]4[C@@]5(C)CCC(=O)C(C)(C)[C@@H]5CC[C@@]4(C)[C@]3(C)CC[C@@]12C(=O)O
- IC50 (A549): > 10000 nM

SMILES: CC(C)=CC(=O)O[C@@H]1CC(C)(C)C[C@H]2C3=CC[C@@H]4[C@@]5(C)CC[C@H](OC(=O)c6ccc(Cl)cc6)C(C)(C)[C@@H]5CC[C@@]4(C)[C@]3(C)CC[C@@]12C(=O)O
- IC50 [1]: 1540 nM
- IC50 (A549): 1120 nM
- remaining at 2 h, 5 mg/ml [2]: 92.2%
- remaining at 5 h, 5 mg/ml [3]: 86.5%
- remaining at 8 h, 5 mg/ml [4]: 80.3%
- remaining at 12 h, 5 mg/ml [5]: 72.8%
- remaining at 0.25 h, 5 mg/ml [6]: 70.2%
- remaining at 0.5 h, 5 mg/ml [7]: 52.2%
- remaining at 1 h, 5 mg/ml [8]: 44.3%
- remaining at 2 h, 5 mg/ml [9]: 32.3%

SMILES: C/C=C(/C)C(=O)O[C@@H]1CC(C)(C)C[C@H]2C3=CC[C@@H]4[C@@]5(C)CC[C@H](OC(=O)c6ccc(Cl)cc6)C(C)(C)[C@@H]5CC[C@@]4(C)[C@]3(C)CC[C@@]12C(=O)O
- IC50 (A549): 1320 nM

SMILES: CC(C)=CC(=O)O[C@@H]1CC(C)(C)C[C@H]2C3=CC[C@@H]4[C@@]5(C)CC[C@H](OC(=O)C(C)C)C(C)(C)[C@@H]5CC[C@@]4(C)[C@]3(C)CC[C@@]12C(=O)O
- IC50 (A549): 2560 nM

SMILES: CCCC(=O)O[C@H]1CC[C@]2(C)[C@H]3CC=C4[C@@H]5CC(C)(C)C[C@@H](OC(=O)C=C(C)C)[C@]5(C(=O)O)CC[C@@]4(C)[C@]3(C)CC[C@H]2C1(C)C
- IC50 (A549): > 10000 nM

SMILES: CC(C)=CC(=O)O[C@@H]1CC(C)(C)C[C@H]2C3=CC[C@@H]4[C@@]5(C)CC[C@H](OC(=O)c6ccccc6F)C(C)(C)[C@@H]5CC[C@@]4(C)[C@]3(C)CC[C@@]12C(=O)O
- IC50 (A549): 1960 nM

SMILES: CC(C)=CC(=O)O[C@@H]1CC(C)(C)C[C@H]2C3=CC[C@@H]4[C@@]5(C)CC[C@H](OC(=O)c6cccc(F)c6)C(C)(C)[C@@H]5CC[C@@]4(C)[C@]3(C)CC[C@@]12C(=O)O
- IC50 (A549): 6860 nM

SMILES: C/C=C(/C)C(=O)O[C@@H]1CC(C)(C)C[C@H]2C3=CC[C@@H]4[C@@]5(C)CC[C@H](OC(=O)CCC)C(C)(C)[C@@H]5CC[C@@]4(C)[C@]3(C)CC[C@@]12C(=O)O
- IC50 (A549): > 10000 nM

SMILES: CC(C)C(=O)O[C@@H]1CC(C)(C)C[C@H]2C3=CC[C@@H]4[C@@]5(C)CCC(=O)C(C)(C)[C@@H]5CC[C@@]4(C)[C@]3(C)CC[C@@]12C(=O)O
- IC50 (A549): > 10000 nM

SMILES: CC(C)=CC(=O)O[C@@H]1CC(C)(C)C[C@H]2C3=CC[C@@H]4[C@@]5(C)CCC(=O)C(C)(C)[C@@H]5CC[C@@]4(C)[C@]3(C)CC[C@@]12C(=O)O
- IC50 (A549): 1190 nM

SMILES: C/C=C(/C)C(=O)O[C@@H]1CC(C)(C)C[C@H]2C3=CC[C@@H]4[C@@]5(C)CC[C@H](O)C(C)(C)[C@@H]5CC[C@@]4(C)[C@]3(C)CC[C@@]12C(=O)O [Reduced Lantadene A]
- IC50 [1]: 2620 nM
- IC50 (A549): 790 nM

SMILES: C/C=C(/C)C(=O)O[C@@H]1CC(C)(C)C[C@H]2C3=CC[C@@H]4[C@@]5(C)CCC(=O)C(C)(C)[C@@H]5CC[C@@]4(C)[C@]3(C)CC[C@@]12C(=O)O [LANTADENE A]
- IC50 (A549): 2840 nM

SMILES: C/C=C(/C)C(=O)O[C@@H]1CC(C)(C)C[C@H]2C3=CC[C@@H]4[C@@]5(C)CC[C@H](OC(=O)c6cccc(F)c6)C(C)(C)[C@@H]5CC[C@@]4(C)[C@]3(C)CC[C@@]12C(=O)O
- IC50 (A549): > 10000 nM

SMILES: C/C=C(/C)C(=O)O[C@@H]1CC(C)(C)C[C@H]2C3=CC[C@@H]4[C@@]5(C)CC[C@H](OC(=O)c6ccccc6F)C(C)(C)[C@@H]5CC[C@@]4(C)[C@]3(C)CC[C@@]12C(=O)O
- IC50 (A549): 2040 nM

SMILES: C/C=C(/C)C(=O)O[C@@H]1CC(C)(C)C[C@H]2C3=CC[C@@H]4[C@@]5(C)CC[C@H](OC(=O)c6cccc(OC)c6)C(C)(C)[C@@H]5CC[C@@]4(C)[C@]3(C)CC[C@@]12C(=O)O
- IC50 (A549): 1840 nM

SMILES: C/C=C(/C)C(=O)O[C@@H]1CC(C)(C)C[C@H]2C3=CC[C@@H]4[C@@]5(C)CC[C@H](OC(=O)C(C)C)C(C)(C)[C@@H]5CC[C@@]4(C)[C@]3(C)CC[C@@]12C(=O)O
- IC50 (A549): > 10000 nM

SMILES: COc1cccc(C(=O)O[C@H]2CC[C@]3(C)[C@H]4CC=C5[C@@H]6CC(C)(C)C[C@@H](OC(=O)C=C(C)C)[C@]6(C(=O)O)CC[C@@]5(C)[C@]4(C)CC[C@H]3C2(C)C)c1
- IC50 [1]: 1360 nM
- IC50 (A549): 980 nM
- remaining at 2 h, 5 mg/ml [2]: 93%
- remaining at 5 h, 5 mg/ml [3]: 88.2%
- remaining at 8 h, 5 mg/ml [4]: 83.3%
- remaining at 12 h, 5 mg/ml [5]: 77.2%
- remaining at 0.25 h, 5 mg/ml [6]: 70.4%
- remaining at 0.5 h, 5 mg/ml [7]: 53.2%
- remaining at 1 h, 5 mg/ml [8]: 46.7%
- remaining at 2 h, 5 mg/ml [9]: 35.3%
- inhibition [10]: Active
